This is an account of results in patent EP0743064A1, “Leukotriene antagonists for use in the treatment or prevention of alzheimer's disease” (ELI LILLY AND COMPANY, priority 1995, dated 1996).

This assay concerns the target T1, binding of tritiated LTB4 to guinea pig lung membranes (Cavia porcellus, UniProt H0VYV8).
T1 construct: contained 25 mg of guinea pig lung membrane protein; from tissue; host or cells: guinea pig lung membranes
The experiment in a line: biochemical.

The structures appear in SMILES notation. Where a name gives a salt, the structure may show the parent alone.

T1 sequence (H0VYV8 1-348): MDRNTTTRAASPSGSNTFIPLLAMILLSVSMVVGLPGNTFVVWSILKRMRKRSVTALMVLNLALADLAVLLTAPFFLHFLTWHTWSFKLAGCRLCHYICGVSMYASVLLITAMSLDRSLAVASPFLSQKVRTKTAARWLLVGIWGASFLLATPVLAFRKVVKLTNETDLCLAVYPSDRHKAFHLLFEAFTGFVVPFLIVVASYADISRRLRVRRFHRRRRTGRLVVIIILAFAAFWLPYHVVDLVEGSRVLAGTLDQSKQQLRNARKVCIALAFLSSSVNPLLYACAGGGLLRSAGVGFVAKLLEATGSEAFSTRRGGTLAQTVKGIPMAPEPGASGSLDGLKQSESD
Method: The effectiveness of compounds of Formula I to inhibit the binding of tritiated LTB4 to guinea pig lung membranes was determined as follows.
[^3H]-LTB4 Radioligand Binding Assay in Guinea Pig Lung Membranes
The binding reaction was terminated by the addition of 1 mL ice cold wash buffer (25 mM Tris-HCl, pH 7.5) followed immediately by vacuum filtration over Whatman GF/C glass fiber filters using a Brandel (Gaithersburg, MD) 48 place harvester. The filters were washed three times with 1 mL of wash buffer. Retained radioactivity was determined by liquid scintillation counting at 50% counting efficiency using Ready Protein Plus cocktail (Beckman, Fullerton, CA). Nondisplaceable binding was determined in the presence of 1 mM LTB4 and was usually less than 10% of total binding. […] The data reported below is the mean -log Ki, otherwise known as the pKi, for n experiments.

As usually defined, the Ki is the equilibrium dissociation constant of an inhibitor or competing ligand from its target. Molecule `CCCc1c(OCCCOc2cc(O)c(-c3ccccc3)cc2CC)cccc1Oc1ccccc1C(=O)O` [Example 61, 2-[2-Propyl-3-[3-(2-ethyl-5-hydroxy-4-phenylphenoxy)-propoxy]phenoxy]benzoic acid sodium salt hemihydrate] had a Ki of 0.0141 µM.
In the case of `CCc1cc(-c2ccc(F)cc2)c(O)cc1OCCCCCC(c1ccccc1)c1nn[nH]n1` (centres unmarked) [Example 84, 1-Phenyl-1-(1H-tetrazol-5-yl)-6-(2-ethyl-4-(4-fluorophenyl)-5-hydroxyphenoxy)hexane] it was 0.00631 µM; in that of `CCc1cc(-c2ccc(F)cc2)c(O)cc1OCCCCCC(c1ccc(OCC(=O)N(C)C)cc1)c1nn[nH]n1` (centres unmarked) [Example 86, 1-(4-(Dimethylaminocarbonylmethoxy)phenyl)-1-(1H-tetrazol-5-yl)-6-(2-ethyl-4-(4-fluorophenyl)-5-hydroxyphenoxy)hexane], 0.0038 µM; in that of `CCc1cc(-c2ccc(C(F)(F)F)cc2)c(O)cc1OCCCCCC(C)(C)c1nn[nH]n1` [disodium salt], 0.0661 µM.
`CCc1cc(-c2cccc(N(C)C)c2)c(O)cc1OCCCCCC(C)(C)c1nn[nH]n1` [disodium salt] gave an inhibition constant (Ki) of 0.0631 µM.
